“And” between values parts separate entries of the source, which are not always exact repeats. Equal values may be shown once.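 Results reflect a 48-hour exposure of cells in 96-well plates to compound at five concentrations. GI50 = concentration required for 50% inhibition of growth. Definition used: TGI = concentration required for complete inhibition of growth.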
Key:
Assay in all cases: growth of human tumour cells (NCI), 48 h
HT29 colon = system: HT29 colon
HCT-15 colon = system: HCT-15 colon
OVCAR-3 ovarian = system: OVCAR-3 ovarian
PC-3 prostate = system: PC-3 prostate
786-0 renal = system: 786-0 renal
T-47D breast = system: T-47D breast
MDA-MB-435 = system: MDA-MB-435
NCI-H23 lung = system: NCI-H23 lung
UACC-257 melanoma = system: UACC-257 melanoma
MDA-N = system: MDA-N

| SMILES | TGI (HT29 colon) [µM] | TGI (HCT-15 colon) [µM] | TGI (OVCAR-3 ovarian) | TGI (PC-3 prostate) [µM] | TGI (786-0 renal) [µM] | TGI (T-47D breast) [µM] | TGI (MDA-MB-435) [µM] | TGI (NCI-H23 lung) | TGI (UACC-257 melanoma) [µM] | TGI (MDA-N) [µM] | GI50 (HCT-15 colon) | GI50 (NCI-H23 lung) | GI50 (UACC-257 melanoma) | GI50 (HT29 colon) [µM] | GI50 (OVCAR-3 ovarian) [µM] | GI50 (PC-3 prostate) [µM] | GI50 (T-47D breast) [µM] | GI50 (MDA-MB-435) [µM] |
| --- | --- | --- | --- | --- | --- | --- | --- | --- | --- | --- | --- | --- | --- | --- | --- | --- | --- | --- |
| O=C1c2cc([N+](=O)[O-])sc2C(=O)c2ccsc21 | 1.48 | 0.815 | 0.209 µM | 1.8 | 0.948 | 1.53 | 0.334 | 1.15 µM | 0.641 | 0.378 |  |  |  |  |  |  |  |  |
| O=C(Oc1cccc(Cl)c1)c1cc2cc(CCl)ccc2oc1=O | > 100 | > 100 | > 100 µM | > 100 | > 100 | > 100 | > 100 | > 100 µM | 31.3 | > 100 |  |  |  |  |  |  |  |  |
| CC(C)c1cccc(C(C)C)c1OS(=O)(=O)NC(=O)OC(C(F)(F)F)C(F)(F)F |  | > 100 |  | > 100 |  |  | > 100 | > 100 µM | > 100 | > 100 |  |  |  |  |  |  |  |  |
| O=C1NC2(C=Cc3c(ccc4ccccc34)O2)Oc2ccccc21 (configuration not stated) | 30.3 | 71.2 | 59.8 µM |  | > 100 |  |  | 92.3 µM |  |  |  |  |  |  |  |  |  |  |
| CN(C)CCNc1nc2c(no[n+]2[O-])c2ccccc12 | > 100 | 57.4 | 71.7 µM | 89.5 | 99 | > 100 | 35.2 | > 100 µM | 34.1 | 91.4 |  |  |  |  |  |  |  |  |
| O=C1N[C@@H](COc2ccc(C=Nc3ccc(CCc4ccc(N=Cc5ccc(OC[C@@H]6COC(=O)N6)cc5)cc4)cc3)cc2)CO1 | > 100 | > 100 | > 100 µM | > 100 | > 100 | > 100 | > 100 |  | > 100 | > 100 |  |  |  |  |  |  |  |  |
| CC(=O)N(CN1C(=O)CCC1C(=O)O)c1ccccc1Cl (configuration not stated) | > 100 | > 100 | > 100 µM | > 100 | > 100 | > 100 | > 100 | > 100 µM | > 100 | > 100 |  |  |  |  |  |  |  |  |
| OCC(O)C(O)C(O)C(O)/C=N/Nc1nc(O)c(/C=C2\C=Nc3ccccc32)[nH]1 (configuration not stated) | > 100 | > 100 | > 100 µM | 97.5 | > 100 | > 100 | > 100 | > 100 µM | > 100 | > 100 |  |  |  |  |  |  |  |  |
| O=S(=O)(/N=C(\NO)Nc1ccc(Cl)cc1)c1ccc(-c2ccccn2)s1 | > 100 | > 100 | 40.2 µM | > 100 |  | > 100 | > 100 | > 100 µM | > 100 | 94.5 |  |  |  |  |  |  |  |  |
| CC1(C)CC[C@]2(C(=O)O)[C@H](O)C[C@]3(C)C(=CC[C@@H]4[C@@]5(C)CC[C@H](OC6OC(C(=O)O)C(O)C(O)C6O)C(C)(C)[C@@H]5CC[C@]43C)[C@@H]2C1 (some centres not stated) | > 100 | > 100 | > 100 µM | > 100 | > 100 | > 100 | > 100 | > 100 µM | > 100 | > 100 |  |  |  |  |  |  |  |  |
| OC(CN1CCCCC1)c1ccc(/C=C/c2ccc(Cl)cc2)cc1 (configuration not stated) | > 100 | 76.3 | > 100 µM | > 100 | > 100 | > 100 | > 100 | > 100 µM | 46.7 | > 100 |  |  |  |  |  |  |  |  |
| COP(C)(=O)C(Cc1c[nH]c2ccccc12)NC(=O)OCc1ccccc1 (configuration not stated) | > 100 | > 100 | > 100 µM | > 100 | > 100 | > 100 | > 100 | > 100 µM | > 100 | > 100 |  |  |  |  |  |  |  |  |
| CSC1=C(C(=O)Nc2ccccc2)C(N)=NC1=O | > 100 | > 100 |  | > 100 | > 100 | > 100 | > 100 | > 100 µM | > 100 | > 100 |  |  |  |  |  |  |  |  |
| CCCCCCCCCCSCC(CO)NC(=O)/C=C/c1c(C)[nH]c(=O)[nH]c1=O (configuration not stated) | > 50 | > 50 | 3.05 µM and 9.12 µM |  |  |  |  | 14.3 µM and > 50 µM | > 50 |  | 5.55 µM and 14.7 µM | 1.76 µM and 5.54 µM | 1.77 µM and 3.82 µM |  |  |  |  |  |
| Cc1ccc2c(=O)c(-c3n[nH]c(=S)s3)c[nH]c2n1 | > 100 | > 100 | > 100 µM | > 100 | > 100 | > 100 | > 100 | > 100 µM | > 100 | > 100 |  |  |  |  |  |  |  |  |
| O=[N+]([O-])c1ccc2ncccc2c1CCc1c([N+](=O)[O-])ccc2ncccc12 | > 100 | > 100 | > 100 µM | > 100 | > 100 | > 100 | > 100 | > 100 µM | > 100 | > 100 |  |  |  |  |  |  |  |  |
| CC[C@H](C)C1=C(OC(C)=O)[N@+]2([O-])Oc3ccc(-c4c(OC(C)=O)c(OC(C)=O)c(-c5ccc(OC(C)=O)cc5)c(OC(C)=O)c4OC(C)=O)cc3O[C@]2([C@@H](C)CC)C(=O)N1OC(C)=O | > 50 | > 50 | 23.4 µM | 30 | 33.8 | 32 | > 50 | > 50 µM | > 50 | > 50 |  |  |  |  |  |  |  |  |
| NCCCC[C@H](N)C(=O)Nc1ccc(-c2nc3ccccc3s2)cc1Cl | 18.1 | 20.5 | 19.2 µM | 31.2 | 8.11 | 19.4 | 9.58 | > 37.6 µM | 32.4 | 9.36 |  |  |  |  |  |  |  |  |
| CC(=O)OCC1OC(N2C(S)=C(C#N)C(c3ccco3)C(C(C)=O)=C2c2ccccc2)C(OC(C)=O)C(OC(C)=O)C1OC(C)=O (configuration not stated) | > 100 | > 100 | > 100 µM | > 100 | > 100 | > 100 | > 100 | > 100 µM | > 100 | > 100 |  |  |  |  |  |  |  |  |
| COc1ccc2[nH]c(O)c(/C=c3/cc4c(c(-c5ccc(F)cc5)n3)=Nc3ccccc3-4)c2c1 | 3.85 | 4.35 | 3.24 µM | > 100 |  | 6.94 | 6.34 | 10.9 µM | 21 |  | 1.91 µM | 2.58 µM | 6.77 µM | 1.94 | 1.82 | 8.26 | 2.06 | 2.05 |
| CC1CN=C(c2ccc(COc3ccc(C4=NCC(C)N4)cc3)cc2)N1 (configuration not stated) | > 100 | > 100 | > 100 µM | > 100 | > 100 | > 100 | > 100 | > 100 µM | 68.3 | > 100 |  |  |  |  |  |  |  |  |

Reference: PubChem BioAssay (NCI)
